# Source: US6653529B2, “Use of the maize X112 mutant ahas 2 gene and imidazolinone herbicides for selection of transgenic monocots, maize, rice and wheat plants resistant to the imidazolinone herbicides” (BASF Aktiengesellschaft, priority 2000, dated 2003)
# Legend:
# Assay type in all cases: in vivo
# [1] = tested on: rice plants (transgenic Lines 26 and 29; Nt control); test: Greenhouse herbicide tests on rice; details: for effect on plant growth at 1× rates: post-emergence
# Excerpt: We evaluated the response of transgenic rice to PURSUIT® imazethapyr application in the greenhouse. In this experiment, we included 2 transgenic lines and their untransformed counterpart (Nt). The transgenic lines, designated as Line 26 and 29, were T3 progeny derived from previously identified homozygous resistant transgenic plants containing the maize XI12 ahas2 gene driven by its own promoter. All seeds were pre-germinated in water for 2-3 days then grown in a planting mixture consisting of 1:1 soil and MetroMix 360 (The Scotts Company, Marysville, Ohio 43040) in 6-inch pots (2 seeds per pot) in the greenhouse and sprayed with PURSUIT® imazethapyr at 63, 125, or 250 g ai/ha. For post-emergence application, the plants were sprayed 15 days after seeding, at which time most plants had 3 leaves. For pre-emergence treatment, PURSUIT® imazethapyr was sprayed one day after seeding. Each treatment contained 20 plants and, and 3 replicates per treatment. One set of materials was not sprayed and used as control. The plants were grown in the greenhouse and harvested at maturity. The amount of PURSUIT® imazethapyr applied in this study (63, 125, or 250 g ai/ha) was close to 1, 2 or 4× field application rate for imi-resistant corn (refer to Table 3) since PURSUIT® imazethapyr is not currently labeled for use in rice fields. A custom designed belt sprayer was operated as described (Newhouse et al. 1992) for all herbicide applications. Five plants from each treatment were randomly chosen and individually measured for morphological traits. Means and standard deviations were calculated over three replications. Plant heights were measured from the base of the plant to the tip of the flag leaf 93 days after herbicide applications (DAH) and number of tillers per plant were counted 102-103 DAH. Data on number of panicles per plant and yield were collected after plants were harvested.
# (§1) A total of 9 herbicides, 5 imidazolinones, two rice herbicides and ACCENT® (nicosulfuron) and CLASSIC® (clorimuron-ethyl) were applied in this study. Materials and methods were basically the same as described above, except that instead of 6″ pots, flats with 18 (3″×3″ per cell) cells were used, and 10-12 seeds were planted to one 3″×3″ cell. Ten plants were maintained in one cell in the post-emergence application. Each herbicide was sprayed at 4 different rates, 1, 2, 4, and 6×, as either pre or post-emergence applications with three replications per treatment. The name and amount of herbicide applied in this experiment and information relevant to their commercial applications are listed in Table 3. For simplicity and convenience, the lowest concentration used is referred as 1× rate, 2, 4 and 6× rates can be calculated as multiples of 1×.
# (§2) To monitor plant response to various herbicides, data on fresh weight was collected. For pre-emergence applications, all plants from one cell were harvested 32 days after spraying (36-day old plants) and weighed. Twenty-nine days after herbicide application, 5 plants (44-day old plants) from each cell in the post-emergence application, were cut and weighed individually. Mean fresh weight for each treatment was calculated over three replications. The remaining 5 plants were grown in the greenhouse to maturity at which time, panicles of 3 plants were collected, and number of filled seeds and number of total kernels were counted to determine percentage of seed set.
# transgenic rice Line 29 = test: Response of rice plants to various herbicides, seed set in greenhouse; details: post-emergence, 1× g ai/ha: PURSUIT 62.5, CADRE 32, ARSENAL 24, RAPTOR 32, SCEPTER 125, ACCENT 35, CLASSIC 5, AC322,140 20, LONDAX 68
# Excerpt: as §1, §2
# [2] = tested on: untransformed Nt rice plants; test: as above; details: post-emergence, 1× g ai/ha: PURSUIT 62.5, CADRE 32, ARSENAL 24, RAPTOR 32, SCEPTER 125, ACCENT 35, CLASSIC 5, AC322,140 20, LONDAX 68
# Excerpt: as §1, §2
# transgenic rice Line 26 = test: as above; details: post-emergence, 1× g ai/ha: PURSUIT 62.5, CADRE 32, ARSENAL 24, RAPTOR 32, SCEPTER 125, ACCENT 35, CLASSIC 5, AC322,140 20, LONDAX 68
# Excerpt: as §1, §2
Structure (SMILES),% seed-set (transgenic rice Line 29; 1× rate),No. filled seeds/3 panicles (transgenic rice Line 29; 1× rate),Total No. of kernels/3 panicles (transgenic rice Line 29; 1× rate),% seed-set (transgenic rice Line 29; 2× rate),No. filled seeds/3 panicles (transgenic rice Line 29; 2× rate),Total No. of kernels/3 panicles (transgenic rice Line 29; 2× rate),% seed-set (transgenic rice Line 29; 4× rate),No. filled seeds/3 panicles (transgenic rice Line 29; 4× rate),Total No. of kernels/3 panicles (transgenic rice Line 29; 4× rate),% seed-set (transgenic rice Line 29; 6× rate),No. filled seeds/3 panicles (transgenic rice Line 29; 6× rate),Total No. of kernels/3 panicles (transgenic rice Line 29; 6× rate),% seed-set ([2]; 1× rate),No. filled seeds/3 panicles ([2]; 1× rate),Total No. of kernels/3 panicles ([2]; 1× rate),% seed-set ([2]; 2× rate),No. filled seeds/3 panicles ([2]; 2× rate),Total No. of kernels/3 panicles ([2]; 2× rate),% seed-set ([2]; 4× rate),No. filled seeds/3 panicles ([2]; 4× rate),also measured
"COc1cc(OC)nc(NC(=O)NS(=O)(=O)Nc2ccccc2C(=O)C2CC2)n1 [AC 322,140, cyclosulfamuron]",91%,150,166,92%,172,187,80%,129,160,87%,134,154,93%,175,187,93%,158,171,95%,83,effect on growth of all plants treated ([1]; transgenic and control plants): minimal effect; Total No. of kernels/3 panicles ([2]; 4× rate): 86; % seed-set ([2]; 6× rate): 98%; No. filled seeds/3 panicles ([2]; 6× rate): 118; Total No. of kernels/3 panicles ([2]; 6× rate): 121; % seed-set (transgenic rice Line 26; 1× rate): 90%; No. filled seeds/3 panicles (transgenic rice Line 26; 1× rate): 144; Total No. of kernels/3 panicles (transgenic rice Line 26; 1× rate): 160; % seed-set (transgenic rice Line 26; 2× rate): 94%; No. filled seeds/3 panicles (transgenic rice Line 26; 2× rate): 158; Total No. of kernels/3 panicles (transgenic rice Line 26; 2× rate): 168; % seed-set (transgenic rice Line 26; 4× rate): 91%; No. filled seeds/3 panicles (transgenic rice Line 26; 4× rate): 166; Total No. of kernels/3 panicles (transgenic rice Line 26; 4× rate): 182; % seed-set (transgenic rice Line 26; 6× rate): 85%; No. filled seeds/3 panicles (transgenic rice Line 26; 6× rate): 134; Total No. of kernels/3 panicles (transgenic rice Line 26; 6× rate): 158
"COc1cc(OC)nc(NC(=O)NS(=O)(=O)c2ncccc2C(=O)N(C)C)n1 [ACCENT ®, nicosulfuron]",82%,94,114,10%,24,48,0%,0,0,0%,0,0,3%,6,24,0%,0,0,0%,0,effect on plant growth at 1× rates [1]: greatly affected plant growth; Total No. of kernels/3 panicles ([2]; 4× rate): 0; % seed-set ([2]; 6× rate): 0%; No. filled seeds/3 panicles ([2]; 6× rate): 0; Total No. of kernels/3 panicles ([2]; 6× rate): 0; % seed-set (transgenic rice Line 26; 1× rate): 34%; No. filled seeds/3 panicles (transgenic rice Line 26; 1× rate): 82; Total No. of kernels/3 panicles (transgenic rice Line 26; 1× rate): 145; % seed-set (transgenic rice Line 26; 2× rate): 0%; No. filled seeds/3 panicles (transgenic rice Line 26; 2× rate): 0; Total No. of kernels/3 panicles (transgenic rice Line 26; 2× rate): 0; % seed-set (transgenic rice Line 26; 4× rate): 0%; No. filled seeds/3 panicles (transgenic rice Line 26; 4× rate): 0; Total No. of kernels/3 panicles (transgenic rice Line 26; 4× rate): 0; % seed-set (transgenic rice Line 26; 6× rate): 0%; No. filled seeds/3 panicles (transgenic rice Line 26; 6× rate): 0; Total No. of kernels/3 panicles (transgenic rice Line 26; 6× rate): 0
"CCOC(=O)c1ccccc1S(=O)(=O)NC(=O)Nc1nc(Cl)cc(OC)n1 [CLASSIC ®, chlorimuron-ethyl]",88%,115,130,85%,112,132,37%,35,45,4%,5,14,87%,87,99,92%,90,97,0%,0,effect on plant growth at 1× rates [1]: greatly affected plant growth; Total No. of kernels/3 panicles ([2]; 4× rate): 0; % seed-set ([2]; 6× rate): 0%; No. filled seeds/3 panicles ([2]; 6× rate): 0; Total No. of kernels/3 panicles ([2]; 6× rate): 0; % seed-set (transgenic rice Line 26; 1× rate): 83%; No. filled seeds/3 panicles (transgenic rice Line 26; 1× rate): 95; Total No. of kernels/3 panicles (transgenic rice Line 26; 1× rate): 114; % seed-set (transgenic rice Line 26; 2× rate): 93%; No. filled seeds/3 panicles (transgenic rice Line 26; 2× rate): 100; Total No. of kernels/3 panicles (transgenic rice Line 26; 2× rate): 108; % seed-set (transgenic rice Line 26; 4× rate): 28%; No. filled seeds/3 panicles (transgenic rice Line 26; 4× rate): 26; Total No. of kernels/3 panicles (transgenic rice Line 26; 4× rate): 65; % seed-set (transgenic rice Line 26; 6× rate): 20%; No. filled seeds/3 panicles (transgenic rice Line 26; 6× rate): 10; Total No. of kernels/3 panicles (transgenic rice Line 26; 6× rate): 18
